According to ChEMBL document CHEMBL5030514, “Discovery of Anti-TNBC Agents Targeting PTP1B: Total Synthesis, Structure-Activity Relationship, In Vitro and In Vivo Investigations of Jamunones” (J Med Chem, 2021):

Assays:
[1] = test system: MDA-MB-231; experiment: Antiproliferative activity against human MDA-MB-231 cells measured by MTT assay; assay type: functional, cell-based
[2] = test system: MCF7; experiment: Antiproliferative activity against human MCF-7 cells measured by MTT assay; assay type: functional, cell-based

Row | IC50 [1] | IC50 [2] | SMILES
1 | 6.79 µM | 17.5 µM | CCCCC/C=C\C/C=C\CCCCCCCc1cc(=O)c2c(O)cc(O)cc2o1
2 | > 87 µM | > 67.3 µM | CCCCC/C=C\C/C=C\CCCCCCCc1cc(=O)c2c(O)c(C)c(OCOC)cc2o1
3 | 6.79 µM | 17.5 µM | CCCC/C=C\CCCCCCCCCc1cc(=O)c2c(O)cc(O)cc2o1
4 | 6.79 µM | 17.5 µM | CC/C=C\C/C=C\C/C=C\CCCCCCCC1(O)CC(=O)c2c(O)cc(O)cc2O1 (stereo not given)
5 | 42.8 µM | 43.2 µM | CCCCCCCCCCCCCCCc1cc(=O)c2c(O)c(C)c(O)cc2o1
6 | 16.1 µM | > 84.1 µM | CC/C=C\C/C=C\C/C=C\CCCCCCCc1cc(=O)c2c(O)c(C)c(OCOC)c(C)c2o1
7 | > 87 µM | > 67.3 µM | CCCC/C=C\CCCCCCCCCc1cc(=O)c2c(O)cc(OCOC)cc2o1
8 | > 87 µM | > 67.3 µM | CCCCC/C=C\C/C=C\CCCCCCCc1cc(=O)c2c(O)cc(OCOC)cc2o1
9 | 42.8 µM | 43.2 µM | CC/C=C\C/C=C\C/C=C\CCCCCCCC1(O)CC(=O)c2c(O)c(C)c(O)c(C)c2O1 (stereo not given)
10 | 16.1 µM | > 84.1 µM | CCCCC/C=C\C/C=C\CCCCCCCc1cc(=O)c2c(O)c(C)c(O)c(C)c2o1
11 | 16.1 µM | > 84.1 µM | CCCCC/C=C\C/C=C\CCCCCCCc1cc(=O)c2c(O)c(C)c(O)cc2o1
12 | 16.1 µM | > 100 µM | CCCCCCCCCCCCCCCC1(O)CC(=O)c2c(O)c(C)c(O)c(C)c2O1 (stereo not given)
13 | 6.79 µM | 17.5 µM | CCCCCCCCCCCCCCCc1cc(=O)c2c(O)cc(O)c(C)c2o1
14 | 6.79 µM | 17.5 µM | CC/C=C\C/C=C\C/C=C\CCCCCCCc1cc(=O)c2c(O)cc(O)c(C)c2o1
15 | 18.7 µM | 33.9 µM | CCCC/C=C/CCCCCCCCCC1(O)CC(=O)c2c(O)cc(O)cc2O1 (stereo not given)
16 | 42.8 µM | 43.2 µM | CCCC/C=C\CCCCCCCCCc1cc(=O)c2c(O)c(C)c(O)cc2o1
17 | 16.1 µM | > 84.1 µM | CCCCC/C=C\C/C=C\CCCCCCCc1cc(=O)c2c(O)cc(OCOC)c(C)c2o1
18 | > 87 µM | > 67.3 µM | CCCC/C=C\CCCCCCCCCc1cc(=O)c2c(O)cc(OCOC)c(C)c2o1
19 | 6.79 µM | 17.5 µM | CC/C=C\C/C=C\C/C=C\CCCCCCCC1(O)CC(=O)c2c(O)cc(OCOC)cc2O1 (stereo not given)
20 | > 87 µM | > 67.3 µM | CCCCCCCCCCCCCCCCCCCC1(O)CC(=O)c2c(O)cc(O)cc2O1 (stereo not given)
21 | 42.8 µM | 43.2 µM | CCCC/C=C\CCCCCCCCCC1(O)CC(=O)c2c(O)cc(OCOC)cc2O1 (stereo not given)
22 | > 87 µM | > 67.3 µM | CCCCC1(O)CC(=O)c2c(O)cc(O)cc2O1 (stereo not given)
23 | > 87 µM | > 67.3 µM | CCCCCCCCCCCCCCCC1(O)CC(=O)c2c(O)cc(OCOC)cc2O1 (stereo not given)

Row | IC50 [1] | IC50 [2] | SMILES
24 | 16.1 µM | > 84.1 µM | CCCCC/C=C\C/C=C\CCCCCCCC1(O)CC(=O)c2c(O)cc(OCOC)cc2O1 (stereo not given)
25 | 42.8 µM | 43.2 µM | CCCCC/C=C\C/C=C\CCCCCCCC1(O)CC(=O)c2c(O)c(C)c(O)c(C)c2O1 (stereo not given)
26 | > 87 µM | > 67.3 µM | CCCC/C=C\CCCCCCCCCc1cc(=O)c2c(O)c(C)c(O)c(C)c2o1
27 | 6.79 µM | 17.5 µM | CC/C=C\C/C=C\C/C=C\CCCCCCCc1cc(=O)c2c(O)cc(OCOC)cc2o1
28 | 6.79 µM | 17.5 µM | CCCC/C=C\CCCCCCCCCc1cc(=O)c2c(O)cc(O)c(C)c2o1
29 | > 87 µM | > 67.3 µM | CCCC/C=C\CCCCCCCCCc1cc(=O)c2c(O)c(C)c(OCOC)c(C)c2o1
30 | > 87 µM | > 67.3 µM | CCCCCCCCCCCCCCCc1cc(=O)c2c(O)cc(OCOC)c(C)c2o1
31 | > 87 µM | > 67.3 µM | CCCCCCCCCCCCCCCc1cc(=O)c2c(O)c(C)c(OCOC)c(C)c2o1
32 | 6.79 µM | 17.5 µM | CCCCC/C=C\C/C=C\CCCCCCCC1(O)CC(=O)c2c(O)cc(O)cc2O1 (stereo not given)
33 | 6.79 µM | 17.5 µM | CC/C=C\C/C=C\C/C=C\CCCCCCCc1cc(=O)c2c(O)cc(O)cc2o1
34 | > 87 µM | > 67.3 µM | CCCC/C=C\CCCCCCCCCc1cc(=O)c2c(O)c(C)c(OCOC)cc2o1
35 | 6.79 µM | 17.5 µM | CC/C=C\C/C=C\C/C=C\CCCCCCCc1cc(=O)c2c(O)c(C)c(O)cc2o1
36 | 6.79 µM | 17.5 µM | CCCCCCCCCCCCCCCc1cc(=O)c2c(O)cc(O)cc2o1
37 | 6.79 µM | 17.5 µM | CCCCCCCCCCCCCCCC1(O)CC(=O)c2c(O)cc(O)cc2O1 (stereo not given)
38 | 6.79 µM | 17.5 µM | CC/C=C\C/C=C\C/C=C\CCCCCCCc1cc(=O)c2c(O)c(C)c(OCOC)cc2o1
39 | 6.79 µM | 17.5 µM | CCCCC/C=C\C/C=C\CCCCCCCc1cc(=O)c2c(O)cc(O)c(C)c2o1
40 | 6.79 µM | 17.5 µM | CC/C=C\C/C=C\C/C=C\CCCCCCCc1cc(=O)c2c(O)cc(OCOC)c(C)c2o1
41 | 42.8 µM | 43.2 µM | CCCCCCCCCCCC1(O)CC(=O)c2c(O)cc(O)cc2O1 (stereo not given)
42 | 6.79 µM | 17.5 µM | CC/C=C\C/C=C\C/C=C\CCCCCCCc1cc(=O)c2c(O)c(C)c(O)c(C)c2o1
43 | > 87 µM | > 67.3 µM | CCCCCCCCCCCCCCCc1cc(=O)c2c(O)c(C)c(OCOC)cc2o1
44 | 16.1 µM | > 84.1 µM | CCCCC/C=C\C/C=C\CCCCCCCc1cc(=O)c2c(O)c(C)c(OCOC)c(C)c2o1
45 | > 87 µM | > 67.3 µM | CCCCCCCCCCCCCCCc1cc(=O)c2c(O)c(C)c(O)c(C)c2o1
